These results are taken from US8859235B2, “Methods in cell cultures, and related inventions, employing certain additives” (priority 2009, dated 2014).

The subject of one assay is E. coli JM109. Kind of assay: Growth and GFP expression in high cell density fedbatch cultivation of E. coli JM109 in mineral medium. The assay is classed as cell-based, Escherichia coli. The note with it: for Optical density Value / GFP expression (RFU/OD600) Value: additive 5 mM. Here is the method:
(§1) The measurement of GFP expression by whole cell fluorescence measurements follows the procedure of Scholz et al. (Eur. J. Biochem., 2000,267, 1565-1570). Frozen cell pellets are thawed, resuspended in 1 mL PBS [NaCl (8 g/L), KCl (0.2), of Na2HPO4 (1.44), KH2PO4 (0.24), adjusted to pH 7.4] and subsequently diluted to an optical density of 0.1. GFP fluorescence of whole cells is measured in a Eclipse Fluorometer (Varian) with an excitation wavelength of 400 nm and an emission wavelength of 512 nm. Specific relative fluorescence [RFU/OD600] is calculated by dividing the relative fluorescence emmision units by the optical density of the suspension at 600 nm.
A first preculture of E. coli JM109 harboring the plasmid pBAD-GFPuv is initiated from glycerol stocks stored at −80° C. in 3 mL of LB medium containing 0.01% (v/v) Antifoam A (Fluka). After growth for 10-12 h it is used to seed 2×100 mL of mineral medium (as described in Example 1) containing 0.01% Antifoam A (silicone fluid containing a suspension of finely powdered silica to enhance its defoaming efficiency; Dow Corning Corporation, Midland, Mich., USA), in 1 L baffled shake flasks. After 10-12 h this culture is centrifuged resuspended in 50 mL mineral medium and is used to inoculate the main culture.
(§2) Cultivation is performed in BioFlow110 bioreactors (Total volume 2.2 L; New Brunswick Scientific, Nürtingen, Germany) filled with 1 L of mineral medium plus 0.01% (v/v) Antifoam A for the batch phase. Reactors are equipped with pH, pO2 and foam probes, mass flow controllers to control gas flow and ratio of air and pure oxygen and pumps for automated dosage of base (14% [v/v] aqueous NH3), antifoam (25% [v/v] Antifoam A) and nutrient feed solution. The agitation is set to 500 rpm and air is supplied at a gas flow rate of 2 L/min. The fedbatch culture is incoculated to an OD600 of 0.25-0.5 and allowed to grow unlimited with a specific growth rate of ˜0.5 h^−1. Growth is monitored by measuring OD600. When the disolved oxygen concentration decreases to 30%, automated adjustment of the air:oxygen ratio in the gas mix is started to control dO2 to 30% using a PID loop. When the gas mix consisted of 100% oxygen a further increase in oxygen transfer is achieved through increasing the agitation rate up to a maximum level of 1200 rpm. When glycerol in the batch medium is completely consumed, as indicated by a distinct drop of pure oxygen in the gas mix, feeding solutions (first containing 70 g/L glycerol and later as cell density increased 200 g/L glycerol in mineral medium) are pumped into the reactor by a predefined exponential fed scheme. The feeding rate is calculated to allow the cells to grow at a growth rate of approximately 0.15 h^−1. During the feeding phase dO2 is also kept at 30%. 3-6 h after starting the feeding protein expression is induced by the addition of 0.2 (w/v) L-arabinose. Samples are taken every hour for OD600 reading and to obtain cell pellets which are stored at −20° C. for further analysis. Analysis of in vivo GFP fluorescence is performed by the method described in Example 1.

Another assay concerns E. coli BL21. Nature of the assay: Time course of growth and GFP expression in E. coli BL21 in high cell density fed-batch cultivation in mineral medium. The note with it: for RFU/OD / OD: additive 5 mM; for OD Factor / RFU/OD Factor: additive vs control. The assay is classed as cell-based, Escherichia coli. On the procedure:
as §1
E. coli BL21 [Novagen, Madison, USA; Genotype: E ompT hsdSB (rB^− mB^−) gal dcm (DE3)] harboring the plasmid pET28a-GFPuv was constructed as detailed in Example 2. A first preculture is initiated from glycerol stocks stored at −80° C. in 3 mL of LB medium containing 0.01% (v/v) Antifoam A (Fluke). After growth for 10-12 h it is used to seed 2×100 mL of mineral medium (as described in Example 1) containing 0.01% Antifoam A (silicone fluid containing a suspension of finely powdered silica to enhance its defoaming efficiency; Dow Corning Corporation, Midland, Mich., USA), in 1 L baffled shake flasks. After 10-12 h this culture is centrifuged, resuspended in 50 mL mineral medium and is used to inoculate the main culture.
as §2, with “inoculated” for “incoculated”, “dissolved” for “disolved”

The mark [1] stands for this setting: Experiment 1, process time 26.75 h, relative to control = 1.
[2] abbreviates: cultivation time 16.5 h, 2.5 h after induction.
[3] abbreviates: cultivation time 20.8 h, 6.0 h after induction.
[4] abbreviates: cultivation time 32.5 h, 18 h after induction.

As to `CC1(C)CC(O)CC(C)(C)N1[O]` [4-Hydroxy-2,2,6,6-tetramethylpiperidin-1-oxyl], the “Optical density Value” is recorded as 11.86 in the assay with E. coli JM109 (Experiment 1, process time 26.75 h, control 9.86) and 11.42 in the assay with E. coli JM109 (Experiment 2, process time 18 h, control 6.67). The “GFP expression (RFU/OD600) Value” with E. coli JM109 (Experiment 1, process time 26.75 h, control 211) is reported as 535 RFU/OD600; in the assay with E. coli JM109 (Experiment 2, process time 18 h, control 0) it was 190 RFU/OD600. Also, the “GFP expression Factor” value with E. coli JM109 (setting [1]) was determined as 2.53. For the same compound, the “Optical density Factor” value with E. coli JM109 (setting [1]) came to 1.20; in the assay with E. coli JM109 (Experiment 2, process time 18 h, relative to control = 1) it was 1.7. In addition, the RFU/OD in the assay on E. coli BL21 (cultivation time 16.5 h, 2.5 h after induction, control 9.1) is given as 107.9 RFU/OD; with E. coli BL21 (cultivation time 20.8 h, 6.0 h after induction, control 264.7) it was 678.8 RFU/OD; with E. coli BL21 (cultivation time 32.5 h, 18 h after induction, control 486.5) it was 873 RFU/OD. The OD came to 43.57 OD in the assay on E. coli BL21 (cultivation time 16.5 h, 2.5 h after induction, control 30.11); 68.52 OD in the assay on E. coli BL21 (cultivation time 20.8 h, 6.0 h after induction, control 48.46); 94.75 OD in the assay on E. coli BL21 (cultivation time 32.5 h, 18 h after induction, control 83.39). The “OD Factor” value with E. coli BL21 (setting [2]) is 1.45; in the assay with E. coli BL21 (setting [3]), 1.41; in the assay with E. coli BL21 (setting [4]), 1.14. Moreover, the results for the “RFU/OD Factor” value with E. coli BL21 (setting [2]), with E. coli BL21 (setting [3]) and with E. coli BL21 (setting [4]) were 11.86, 2.56 and 1.79, respectively.
